{"source": "paper PMC8954547", "about": "“Nonpeptidic Z360-Analogs Tagged with Trivalent Radiometals as Anti-CCK2R Cancer Theranostic Agents: A Preclinical Study” (Pharmaceutics, 2022)", "system": "SCID mice bearing twin HEK293-CCK2i4svR and wtHEK293 tumors", "assay": "Biodistribution in SCID mice bearing twin HEK293-CCK2i4svR and wtHEK293 xenografts", "assay_type": "in vivo", "how_it_was_run": "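Uptake is expressed as %IA/g (mean ± SD, n = 4) from gamma counting of blood, organs and tumours collected at set times: 1, 4 and 24 h pi for ^67Ga, 4 and 24 h for ^111In (±gelofusine), 4–96 h for ^177Lu. Radioligands were given iv at 7–40 pmol to SCID mice bearing twin CCK2i4svR-transfected and wild-type HEK293 xenografts.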"}
{"smiles": "CC(C)(C)C(=O)CN1C(=O)[C@H](NC(=O)Nc2cccc(C(=O)NCCOCCOCCOCCNC(=O)[C@H](CCC(=O)O)NC(=O)CCC(C(=O)O)N3CCN(CC(=O)[O-])CCN(CC(=O)[O-])CCN(CC(=O)[O-])CC3)c2)CN(C2CCCCC2)c2ccccc21.[177Lu+3]", "note": "(stereo in doubt) [[^177Lu]Lu-GAS3]", "values": [{"measurement": "Tumor to kidney ratio", "setting": "96 pi", "value": 13.8}, {"measurement": "Biodistribution, Blood", "setting": "4 h pi", "value": "3.19 ± 0.44", "unit": "%IA/g"}, {"measurement": "Biodistribution, CCK2i4svR(+) Tumor", "setting": "4 h pi", "value": "20.88 ± 1.20", "unit": "%IA/g"}, {"measurement": "Biodistribution, CCK2i4svR(-) Tumor", "setting": "4 h pi", "value": "1.14 ± 0.50", "unit": "%IA/g"}, {"measurement": "Biodistribution, Femur", "setting": "4 h pi", "value": "0.60 ± 0.07", "unit": "%IA/g"}, {"measurement": "Biodistribution, Heart", "setting": "4 h pi", "value": "0.94 ± 0.21", "unit": "%IA/g"}, {"measurement": "Biodistribution, Intestines", "setting": "4 h pi", "value": "1.85 ± 0.18", "unit": "%IA/g"}, {"measurement": "Biodistribution, Kidneys", "setting": "4 h pi", "value": "8.86 ± 0.67", "unit": "%IA/g"}, {"measurement": "Biodistribution, Liver", "setting": "4 h pi", "value": "2.73 ± 0.31", "unit": "%IA/g"}, {"measurement": "Biodistribution, Lungs", "setting": "4 h pi", "value": "1.94 ± 0.21", "unit": "%IA/g"}, {"measurement": "Biodistribution, Muscle", "setting": "4 h pi", "value": "0.31 ± 0.04", "unit": "%IA/g"}, {"measurement": "Biodistribution, Pancreas", "setting": "4 h pi", "value": "1.00 ± 0.13", "unit": "%IA/g"}, {"measurement": "Biodistribution, Spleen", "setting": "4 h pi", "value": "1.19 ± 0.12", "unit": "%IA/g"}, {"measurement": "Biodistribution, Stomach", "setting": "4 h pi", "value": "0.64 ± 0.07", "unit": "%IA/g"}, {"measurement": "Tumor to kidney ratio", "setting": "4 h pi", "value": 2.4}, {"measurement": "Biodistribution, Blood", "setting": "24 h pi", "value": "0.07 ± 0.01", "unit": "%IA/g"}, {"measurement": "Biodistribution, CCK2i4svR(+) Tumor", "setting": "24 h pi", "value": "5.38 ± 0.77", "unit": "%IA/g"}, {"measurement": "Biodistribution, CCK2i4svR(-) Tumor", "setting": "24 h pi", "value": "0.37 ± 0.12", "unit": "%IA/g"}, {"measurement": "Biodistribution, Femur", "setting": "24 h pi", "value": "0.11 ± 0.02", "unit": "%IA/g"}, {"measurement": "Biodistribution, Heart", "setting": "24 h pi", "value": "0.08 ± 0.02", "unit": "%IA/g"}, {"measurement": "Biodistribution, Intestines", "setting": "24 h pi", "value": "0.17 ± 0.04", "unit": "%IA/g"}, {"measurement": "Biodistribution, Kidneys", "setting": "24 h pi", "value": "1.42 ± 0.29", "unit": "%IA/g"}, {"measurement": "Biodistribution, Liver", "setting": "24 h pi", "value": "0.51 ± 0.05", "unit": "%IA/g"}, {"measurement": "Biodistribution, Lungs", "setting": "24 h pi", "value": "0.26 ± 0.02", "unit": "%IA/g"}, {"measurement": "Biodistribution, Muscle", "setting": "24 h pi", "value": "0.03 ± 0.01", "unit": "%IA/g"}, {"measurement": "Biodistribution, Pancreas", "setting": "24 h pi", "value": "0.07 ± 0.01", "unit": "%IA/g"}, {"measurement": "Biodistribution, Spleen", "setting": "24 h pi", "value": "0.45 ± 0.05", "unit": "%IA/g"}, {"measurement": "Biodistribution, Stomach", "setting": "24 h pi", "value": "0.11 ± 0.01", "unit": "%IA/g"}, {"measurement": "Tumor to kidney ratio", "setting": "24 h pi", "value": 3.8}, {"measurement": "Biodistribution, Blood", "setting": "48 h pi", "value": "0.05 ± 0.01", "unit": "%IA/g"}, {"measurement": "Biodistribution, CCK2i4svR(+) Tumor", "setting": "48 h pi", "value": "3.39 ± 0.23", "unit": "%IA/g"}, {"measurement": "Biodistribution, CCK2i4svR(-) Tumor", "setting": "48 h pi", "value": "0.25 ± 0.14", "unit": "%IA/g"}, {"measurement": "Biodistribution, Femur", "setting": "48 h pi", "value": "0.14 ± 0.04", "unit": "%IA/g"}, {"measurement": "Biodistribution, Heart", "setting": "48 h pi", "value": "0.08 ± 0.01", "unit": "%IA/g"}, {"measurement": "Biodistribution, Intestines", "setting": "48 h pi", "value": "0.07 ± 0.01", "unit": "%IA/g"}, {"measurement": "Biodistribution, Kidneys", "setting": "48 h pi", "value": "0.47 ± 0.07", "unit": "%IA/g"}, {"measurement": "Biodistribution, Liver", "setting": "48 h pi", "value": "0.35 ± 0.09", "unit": "%IA/g"}, {"measurement": "Biodistribution, Lungs", "setting": "48 h pi", "value": "0.18 ± 0.03", "unit": "%IA/g"}, {"measurement": "Biodistribution, Muscle", "setting": "48 h pi", "value": "0.04 ± 0.01", "unit": "%IA/g"}, {"measurement": "Biodistribution, Pancreas", "setting": "48 h pi", "value": "0.08 ± 0.04", "unit": "%IA/g"}, {"measurement": "Biodistribution, Spleen", "setting": "48 h pi", "value": "0.43 ± 0.10", "unit": "%IA/g"}, {"measurement": "Biodistribution, Stomach", "setting": "48 h pi", "value": "0.08 ± 0.01", "unit": "%IA/g"}, {"measurement": "Biodistribution, Blood", "setting": "72 h pi", "value": "0.04 ± 0.00", "unit": "%IA/g"}, {"measurement": "Biodistribution, CCK2i4svR(+) Tumor", "setting": "72 h pi", "value": "1.99 ± 0.31", "unit": "%IA/g"}, {"measurement": "Biodistribution, CCK2i4svR(-) Tumor", "setting": "72 h pi", "value": "0.13 ± 0.03", "unit": "%IA/g"}, {"measurement": "Biodistribution, Femur", "setting": "72 h pi", "value": "0.06 ± 0.00", "unit": "%IA/g"}, {"measurement": "Biodistribution, Heart", "setting": "72 h pi", "value": "0.04 ± 0.01", "unit": "%IA/g"}, {"measurement": "Biodistribution, Intestines", "setting": "72 h pi", "value": "0.04 ± 0.01", "unit": "%IA/g"}, {"measurement": "Biodistribution, Kidneys", "setting": "72 h pi", "value": "0.17 ± 0.04", "unit": "%IA/g"}, {"measurement": "Biodistribution, Liver", "setting": "72 h pi", "value": "0.32 ± 0.02", "unit": "%IA/g"}, {"measurement": "Biodistribution, Lungs", "setting": "72 h pi", "value": "0.15 ± 0.01", "unit": "%IA/g"}, {"measurement": "Biodistribution, Muscle", "setting": "72 h pi", "value": "0.03 ± 0.01", "unit": "%IA/g"}, {"measurement": "Biodistribution, Pancreas", "setting": "72 h pi", "value": "0.03 ± 0.01", "unit": "%IA/g"}, {"measurement": "Biodistribution, Spleen", "setting": "72 h pi", "value": "0.44 ± 0.07", "unit": "%IA/g"}, {"measurement": "Biodistribution, Stomach", "setting": "72 h pi", "value": "0.06 ± 0.02", "unit": "%IA/g"}, {"measurement": "Biodistribution, Blood", "setting": "96 h pi", "value": "0.04 ± 0.00", "unit": "%IA/g"}, {"measurement": "Biodistribution, CCK2i4svR(+) Tumor", "setting": "96 h pi", "value": "1.52 ± 0.43", "unit": "%IA/g"}, {"measurement": "Biodistribution, CCK2i4svR(-) Tumor", "setting": "96 h pi", "value": "0.00 ± 0.04", "unit": "%IA/g"}, {"measurement": "Biodistribution, Femur", "setting": "96 h pi", "value": "0.06 ± 0.00", "unit": "%IA/g"}, {"measurement": "Biodistribution, Heart", "setting": "96 h pi", "value": "0.03 ± 0.01", "unit": "%IA/g"}, {"measurement": "Biodistribution, Intestines", "setting": "96 h pi", "value": "0.03 ± 0.01", "unit": "%IA/g"}, {"measurement": "Biodistribution, Kidneys", "setting": "96 h pi", "value": "0.11 ± 0.03", "unit": "%IA/g"}, {"measurement": "Biodistribution, Liver", "setting": "96 h pi", "value": "0.25 ± 0.02", "unit": "%IA/g"}, {"measurement": "Biodistribution, Lungs", "setting": "96 h pi", "value": "0.14 ± 0.01", "unit": "%IA/g"}, {"measurement": "Biodistribution, Muscle", "setting": "96 h pi", "value": "0.01 ± 0.00", "unit": "%IA/g"}, {"measurement": "Biodistribution, Pancreas", "setting": "96 h pi", "value": "0.02 ± 0.00", "unit": "%IA/g"}, {"measurement": "Biodistribution, Spleen", "setting": "96 h pi", "value": "0.39 ± 0.02", "unit": "%IA/g"}, {"measurement": "Biodistribution, Stomach", "setting": "96 h pi", "value": "0.04 ± 0.00", "unit": "%IA/g"}, {"measurement": "Background clearance / excretion route", "setting": "mouse, in vivo", "value": "rapid background clearance predominantly via the kidneys"}]}
